PubChem BioAssay (NCI)
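In this assay, cells in 96-well plates receive the compound at five concentrations for 48 hours. Endpoints are linearly interpolated between the surrounding concentrations. The concentration for full growth arrest is given as TGI.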

Assays:
Assay in all cases: growth of human tumour cells (NCI), 48 h
LOX IMVI melanoma = test system: LOX IMVI melanoma
SNB-75 CNS = test system: SNB-75 CNS
EKVX NSCLC = test system: EKVX NSCLC
HS 578T breast = test system: HS 578T breast
SR leukemia = test system: SR leukemia
PC-3 prostate = test system: PC-3 prostate
UO-31 renal = test system: UO-31 renal
NCI-H460 lung = test system: NCI-H460 lung
HOP-62 NSCLC = test system: HOP-62 NSCLC
COLO 205 colon = test system: COLO 205 colon
U251 CNS = test system: U251 CNS
CCRF-CEM leukemia = test system: CCRF-CEM leukemia
KM12 colon = test system: KM12 colon
SK-MEL-5 melanoma = test system: SK-MEL-5 melanoma
BT-549 breast = test system: BT-549 breast
SK-MEL-28 melanoma = test system: SK-MEL-28 melanoma
OVCAR-5 ovarian = test system: OVCAR-5 ovarian
HCC-2998 colon = test system: HCC-2998 colon
SF-295 CNS = test system: SF-295 CNS
SK-OV-3 ovarian = test system: SK-OV-3 ovarian
HCT-116 colon = test system: HCT-116 colon
NCI-H522 lung = test system: NCI-H522 lung
HOP-92 NSCLC = test system: HOP-92 NSCLC
TK-10 renal = test system: TK-10 renal
MDA-MB-435 = test system: MDA-MB-435
MDA-N = test system: MDA-N
OVCAR-8 ovarian = test system: OVCAR-8 ovarian
K-562 leukemia = test system: K-562 leukemia
SF-539 CNS = test system: SF-539 CNS
UACC-62 melanoma = test system: UACC-62 melanoma
RPMI-8226 leukemia = test system: RPMI-8226 leukemia
MALME-3M melanoma = test system: MALME-3M melanoma
MCF7 breast = test system: MCF7 breast
ACHN renal = test system: ACHN renal
SK-MEL-2 melanoma = test system: SK-MEL-2 melanoma
NCI-H23 lung = test system: NCI-H23 lung
SN12C renal = test system: SN12C renal
SF-268 CNS = test system: SF-268 CNS
HCT-15 colon = test system: HCT-15 colon
MDA-MB-231 breast = test system: MDA-MB-231 breast
SNB-19 CNS = test system: SNB-19 CNS
IGROV1 ovarian = test system: IGROV1 ovarian
SW-620 colon = test system: SW-620 colon
OVCAR-4 ovarian = test system: OVCAR-4 ovarian
786-0 renal = test system: 786-0 renal
A498 renal = test system: A498 renal
A549 NSCLC = test system: A549 NSCLC
NCI/ADR-RES ovarian = test system: NCI/ADR-RES ovarian
HT29 colon = test system: HT29 colon
MOLT-4 leukemia = test system: MOLT-4 leukemia
T-47D breast = test system: T-47D breast
UACC-257 melanoma = test system: UACC-257 melanoma
CAKI-1 renal = test system: CAKI-1 renal
RXF 393 renal = test system: RXF 393 renal
NCI-H226 lung = test system: NCI-H226 lung
OVCAR-3 ovarian = test system: OVCAR-3 ovarian
M14 melanoma = test system: M14 melanoma

Measured: TGI

Cn1c(=O)cc(Nc2ccc(N)cc2)[nH]c1=O
> 100 µM: all assays above

[O-][N+]1=C2CCC/C(=N/O)C2(O)C2CCCCC21N1CCOCC1 (stereo unspecified)
not listed: HOP-92 NSCLC | RPMI-8226 leukemia | A498 renal
> 100 µM: all other assays above
